# Measurements taken from US20110251238A1, “PPAR AGONIST COMPOSITIONS AND METHODS OF USE” (BIOPHARMED, priority 2008, published 2011).
# Where a name gives a salt, the structure may show the parent alone. Read-outs that look alike come from different tables or passages of the source.
# Legend:
# [1] = system: KB3 (epitheloid lung cancer) cell lines; experiment: Cell growth inhibition (cytotoxicity), MTS assay, KB3 cell line; format: cell-based; settings: for cytotoxic activity in words: structure-cytotoxicity discussion
# Protocol: Cell growth inhibition was determined by the MTS assay; the number of viable cells were proportional to the extent of formazan production in the presence or absence of drugs. […]
# [2] = system: bloodstream forms of T. brucei and T. congolense; experiment: Trypanocidal activity in vitro, Alamar Blue assay; format: cell-based, Trypanosoma brucei and T. congolense
# Description: Trypanosoma brucei and T. congolense are the causative agents of sleeping sickness in humans and nagana in cattle, respectively. The protozoan parasites live extracellularlyin blood and tissue fluids of mammals and are transmitted by the bite of infected tsetse flies (Glossina spp.). Here the trypanocidal activity against bloodstream forms of T. brucei and T. congolense of bis-8-hydroxy quinoline N-substituted benzylamines derivatives was investigated in vitro, according to methods described in. Steverding et al. (2006) Kinetoplastid Biology and Disease, 5(3): 1-5; Hongmance et al., (2007) Antimicrob. Agents Chemother. 51:1105-1106; and Zhao et al., (2005) Bio-org. Med. Chem.; 13: 3921-3926. Cells were seeded into 96-well tissue culture plates in 200 μl medium containing various concentrations of analogues dissolved in H2O. The controls contained the respective solvent alone. […] After 24 h (trypanosomes) or 43 h (HL-60) incubation, 20 μl of the colorimetric viability indicator Alamar Blue® was added to each well. The cells were incubated for a further 24 h (trypanosomes) or 5 h (HL-60) so that the total incubation time was 48 h. Then, the plates were read on a Dynatech MR5000ELISA reader (Denkendorf, Germany),using a test wavelength of 550 nm and a reference wave length of 630 nm. Each test was set up in duplicate and repeated three times. For comparison, the general cytotoxicity of the compounds was assayed with human myeloid leukaemia HL-60 cells. The anti-trypanosomal activities and the general cytotoxicities of the new analogues were evaluated using the Alamar Blue® assay.
# [3] = system: T98G (glioblastoma); experiment: cells; format: cell-based; settings: Homo sapiens, T98G, 72 h; glioma; 3 days with drug; means of six values; unit inferred; read-out: IC50 T98G
# Protocol: (§1) A549 (human lung adenocarcinoma epithelial), BxPC3 (pancreatic cancer), LoVo (colon cancer), MCF-7 (epithelial breast cancer), PC3 (human prostate cancer), Hs683 (human glioma), T98G (glioblastoma), U373 (human glioblastoma-astrocytoma), U138 MG (human glioma), epithelial-like), SKMEL28 (human melanoma), B16-F10 (mouse melanoma) and RhTP (rhabdomyosarcoma) cell lines were cultured in presence of the drugs for 3 days. The cytotoxic activity is expressed as (IC50). Inhibition of cell proliferation measured by the MTT colorimetric assay. The values reported in Table 4 are means of six distinct values.
# [4] = system: A549 (human lung adenocarcinoma epithelial); experiment: Growth inhibition, MTT colorimetric assay, A549; format: cell-based; settings: Homo sapiens, A549, 72 h; carcinoma; 3 days with drug; means of six values; unit inferred; read-out: IC50 A549
# Protocol: as §1
# [5] = system: BxPC3 (pancreatic cancer); experiment: Growth inhibition, MTT colorimetric assay, BxPC3; format: cell-based, human; settings: Homo sapiens, BXPC-3, 72 h; carcinoma; 3 days with drug; means of six values; unit inferred; read-out: IC50 BxPC3
# Protocol: Cells are cultured at 37° C. in Falcon culture dishes, incubated at 5% CO2 in a suitable culture medium available from Invitrogen Corp. Anti-proliferative activity is determined by an MTT assay (bromide of (3-[4,5-dimethylthiazolium-yl]diphenyltetrazolium)). According to one standard protocol, absorbance is measured at 570 nm (see Dumont et al. (2007) Neoplasia 9: 766-776.
# as §1
# [6] = system: U373 (human glioblastoma-astrocytoma); experiment: Growth inhibition, MTT colorimetric assay, U373; format: cell-based; settings: Homo sapiens, U373 MG, 72 h; glioma; 3 days with drug; means of six values; unit inferred; read-out: IC50 U373
# Protocol: as §1, with “Compounds that met the criteria for activity on KB3 cells were further tested for drug growth inhibitory activity in 5 carcinoma, 6 glioma and 3 melanoma cell lines, shown in Table 4. A549” for “A549”, “values. The standard errors are <5% as compared to the mean values.” for “values.”
# [7] = system: PC3 (human prostate cancer); experiment: Growth inhibition, MTT colorimetric assay, PC3; format: cell-based; settings: Homo sapiens, 72 h; carcinoma; 3 days with drug; means of six values; unit inferred; read-out: IC50 PC3
# Protocol: as §1, with “Compounds that met the criteria for activity on KB3 cells were further tested for drug growth inhibitory activity in 5 carcinoma, 6 glioma and 3 melanoma cell lines, shown in Table 4. A549” for “A549”, “values. The standard errors are <5% as compared to the mean values.” for “values.”
# [8] = system: MCF-7 (epithelial breast cancer); experiment: Growth inhibition, MTT colorimetric assay, MCF7; format: cell-based; settings: Homo sapiens, MCF7, 72 h; carcinoma; 3 days with drug; means of six values; unit inferred; read-out: IC50 MCF7
# Protocol: as §1
# [9] = system: B16-F10 (mouse melanoma); experiment: Growth inhibition, MTT colorimetric assay, B16F10; format: cell-based; settings: Mus musculus, B16-F10, 72 h; melanoma; 3 days with drug; means of six values; unit inferred; read-out: IC50 B16F10
# Protocol: as §1, with “Compounds that met the criteria for activity on KB3 cells were further tested for drug growth inhibitory activity in 5 carcinoma, 6 glioma and 3 melanoma cell lines, shown in Table 4. A549” for “A549”, “values. The standard errors are <5% as compared to the mean values.” for “values.”
# [10] = system: LoVo (colon cancer); experiment: Growth inhibition, MTT colorimetric assay, LoVo; format: cell-based; settings: Homo sapiens, LoVo, 72 h; carcinoma; 3 days with drug; means of six values; unit inferred; read-out: IC50 LoVo
# Protocol: as §1
# [11] = system: U138 MG (human glioma); experiment: Growth inhibition, MTT colorimetric assay, U138; format: cell-based; settings: Homo sapiens, U138-MG, 72 h; glioma; 3 days with drug; means of six values; unit inferred; read-out: IC50 U138
# Protocol: as §1, with “Compounds that met the criteria for activity on KB3 cells were further tested for drug growth inhibitory activity in 5 carcinoma, 6 glioma and 3 melanoma cell lines, shown in Table 4. A549” for “A549”, “values. The standard errors are <5% as compared to the mean values.” for “values.”
# [12] = system: KaKa; experiment: Growth inhibition, MTT colorimetric assay, KaKa; format: cell-based; settings: 72 h; 3 days with drug; means of six values; unit inferred; read-out: IC50 KaKa
# Protocol: as §1, with “Compounds that met the criteria for activity on KB3 cells were further tested for drug growth inhibitory activity in 5 carcinoma, 6 glioma and 3 melanoma cell lines, shown in Table 4. A549” for “A549”, “values. The standard errors are <5% as compared to the mean values.” for “values.”
# [13] = system: Hs683 (human glioma); experiment: Growth inhibition, MTT colorimetric assay, HS683; format: cell-based; settings: Homo sapiens, Hs 683, 72 h; glioma; 3 days with drug; means of six values; unit inferred; read-out: IC50 HS683
# Protocol: as §1
# [14] = system: Host; experiment: Growth inhibition, MTT colorimetric assay, Host; format: cell-based; settings: 72 h; 3 days with drug; means of six values; unit inferred; read-out: IC50 Host
# Protocol: as §1, with “Compounds that met the criteria for activity on KB3 cells were further tested for drug growth inhibitory activity in 5 carcinoma, 6 glioma and 3 melanoma cell lines, shown in Table 4. A549” for “A549”, “values. The standard errors are <5% as compared to the mean values.” for “values.”
# [15] = system: GL19; experiment: Growth inhibition, MTT colorimetric assay, GL19; format: cell-based; settings: GL19, 72 h; 3 days with drug; means of six values; unit inferred; read-out: IC50 GL19
# Protocol: as §1, with “Compounds that met the criteria for activity on KB3 cells were further tested for drug growth inhibitory activity in 5 carcinoma, 6 glioma and 3 melanoma cell lines, shown in Table 4. A549” for “A549”, “values. The standard errors are <5% as compared to the mean values.” for “values.”
# [16] = system: RhTP (rhabdomyosarcoma); experiment: Growth inhibition, MTT colorimetric assay, RhTp; format: cell-based; settings: 72 h; 3 days with drug; means of six values; unit inferred; read-out: IC50 RhTp
# Protocol: as §1, with “Compounds that met the criteria for activity on KB3 cells were further tested for drug growth inhibitory activity in 5 carcinoma, 6 glioma and 3 melanoma cell lines, shown in Table 4. A549” for “A549”, “values. The standard errors are <5% as compared to the mean values.” for “values.”
# [17] = system: SKMEL28 (human melanoma); experiment: Growth inhibition, MTT colorimetric assay, SKMEL-28; format: cell-based; settings: Homo sapiens, SK-MEL-28, 72 h; melanoma; 3 days with drug; means of six values; unit inferred; read-out: IC50 SKMEL-28
# Protocol: as §1, with “Compounds that met the criteria for activity on KB3 cells were further tested for drug growth inhibitory activity in 5 carcinoma, 6 glioma and 3 melanoma cell lines, shown in Table 4. A549” for “A549”, “values. The standard errors are <5% as compared to the mean values.” for “values.”
# [18] = Table 3A, MTS assay, triplicate, read-out: KB3 IC50
# [19] = KB3, Table 3B, MTS assay, triplicate, read-out: KB3 IC50
# [20] = 50% growth inhibition, 48 h total incubation, read-out: GI50
# [21] = lowest concentration at which all cells were killed, 48 h total incubation, read-out: MIC
# [22] = KB3, Table 3A, MTS assay, triplicate, read-out: KB3 IC50
molecule,measurement,setting,value
"5,5′-(2-(pyridin-2-yl)ethylazanediyl)bis(methylene)diquinolin-8-ol) [BPM19,193]",IC50,[1]; [18],> 10000 nM
"5,5′-(2-(pyrrolidin-1-yl)ethylazanediyl)bis(methylene)diquinolin-8-ol) [BPM19,214]",IC50,[1]; [18],1000 nM
"Cc1ccc(C(=O)NCc2ccc(O)c3ncccc23)cc1 [BPM18,203, N-((8-hydroxyquinolin-5-yl)methyl)-4-methylbenzamide]",IC50,[1]; [19],1000 nM
same,CC50,[1]; KB3 cell line,1000 nM
same,cytotoxic activity in words,[1]; KB3 cell line,inactive or only weakly active
"Oc1ccc(CNCc2ccccc2)c2cccnc12 [BPM18,726, 5-((benzylamino)methyl)quinolin-8-ol dihydrochloride]",IC50,[1]; [19],> 1000 nM
"Oc1ccc(CNCc2cccc(C(F)(F)F)c2)c2cccnc12 [BPM19,114, 5-((3-(trifluoromethyl)benzylamino)methyl)quinolin-8-ol]",IC50,[1]; [19],200 nM
same,cytotoxic activity in words,[1]; KB3 cell line,significant cytotoxic activity
"Cc1ccc(CNCc2ccc(O)c3ncccc23)cc1 [BPM19,167, 5-((4-methylbenzylamino)methyl)quinolin-8-ol dihydrochloride]",GI50,[2]; 48 h,14800 ± 2590 nM
same,MIC,[2]; 48 h,100 µM
"Oc1ccc(CNCc2ccc(C(F)(F)F)cc2)c2cccnc12 [BPM19,191, 5-((4-(trifluoromethyl)benzylamino)methyl)quinolin-8-ol]",IC50,[1]; [19],10000 nM
"Oc1ccc(CN(Cc2ccc(O)c3ncccc23)CC2CCCO2)c2cccnc12 (stereo not shown) [BPM19,197, 5,5′-((tetrahydrofuran-2-yl)methylazanediyl)bis(methylene)diquinolin-8-ol]",GI50,[2]; [20],2990 ± 50 nM
same,MIC,[2]; [21],10 µM
same,IC50,[1]; [22],10000 nM
"Oc1ccc(CN(Cc2ccc(OC(F)(F)F)cc2)Cc2ccc(O)c3ncccc23)c2cccnc12 [BPM19,205, 5,5′-(4-(trifluoromethoxy)benzylazanediyl)bis(methylene)diquinolin-8-ol]",GI50,[2]; [20],320 ± 20 nM
same,MIC,[2]; [21],1 µM
same,IC50,[1]; [22],100 to 1000 nM
"Cn1cccc1CN(Cc1ccc(O)c2ncccc12)Cc1ccc(O)c2ncccc12 [BPM19,216, 5,5′-((1-methyl-1H-pyrrol-2-yl)methylazanediyl)bis(methylene)diquinolin-8-ol]",GI50,[2]; [20],320 ± 10 nM
same,MIC,[2]; [21],1 µM
"O=C(O)C1CCC(CN(Cc2ccc(O)c3ncccc23)Cc2ccc(O)c3ncccc23)CC1 (stereo not shown) [BPM19,225, 4-((bis((8-hydroxyquinolin-5-yl)methyl)amino)-methyl)cyclohexanecarboxylic acid]",IC50,[3],9760 nM
same,IC50,[4],661 nM
same,IC50,[5],4340 nM
same,IC50,[6],3730 nM
same,IC50,[7],993 nM
same,IC50,[8],9460 nM
same,IC50,[9],> 10000 nM
same,IC50,[10],422 nM
same,IC50,[11],> 10000 nM
same,IC50,[12],> 10000 nM
same,IC50,[13],2860 nM
same,IC50,[14],> 10000 nM
same,IC50,[15],7600 nM
same,IC50,[16],> 10000 nM
same,IC50,[17],> 10000 nM
"Oc1ccc(CN(Cc2ccccc2)Cc2ccccc2)c2cccnc12 [BPM19,230, 5-((dibenzylamino)methyl)quinolin-8-ol]",IC50,[1]; [19],1000 nM
"Oc1ccc(N(Cc2cccc3ccccc23)c2ccc(O)c3ncccc23)c2cccnc12 [BPM19,702, 5,5′-(naphthalen-1-ylmethylazanediyl)diquinolin-8-ol]",GI50,[2]; [20],290 nM
same,MIC,[2]; [21],1 µM
"Cc1ccc2c(CN(Cc3ccc(C(F)(F)F)cc3)Cc3ccc(O)c4nc(C)ccc34)ccc(O)c2n1 [BPM19,876, 5,5′-(4-trifluoromethylbenzylazanediyl)bis(methylene)bis(2-methylquinolin-8-ol)]",GI50,[2]; [20],3710 ± 240 nM
same,MIC,[2]; [21],100 µM
"CC(=O)O[C@@]12CO[C@@H]1C[C@H](O)[C@@]1(C)C(=O)[C@H](O)C3=C(C)[C@@H](OC(=O)[C@H](O)[C@@H](NC(=O)OC(C)(C)C)c4ccccc4)C[C@@](O)([C@@H](OC(=O)c4ccccc4)[C@H]21)C3(C)C [docetaxel, reference compound]",IC50,"[1]; compared with KB3 values, read-out: IC50 value of reference drug",0.1 nM
